Assay results: patent publication US11261136B2, “Triarylmethane compounds for controlling enzyme-induced urea decomposition” (priority 2017, dated 2022)
Where two headings read alike, the source gives them in different places.

Assays:
urease = urease (Canavalia ensiformis, UniProt P07374); conditions: in solution; cited from earlier work
jackbean urease enzyme [1] = molecular target: T1, jackbean urease enzyme (Canavalia ensiformis, UniProt P07374); assay: Jackbean urease inhibition, Example 1 repeated with buffer at pH 7; format: biochemical
T1 construct: purchased
Procedure: (§1) An aqueous solution containing 0.105 moles/L of monosodium phosphate was adjusted to a pH of 5.0 with sodium hydroxide. Suitable quantities of a solution of 3,3′,4-trihydroxysuchsone-2″-sulfonic acid were added, with stirring, to 19.0 mL of the above phosphate solution, to give a series of mixtures having the following concentrations of sulfonic acid: 100, 250, 500, 750, 1000, 2000, and 5000 ppb. Next, commercial jackbean urease enzyme solution of known concentration was added to each mixture to provide 40 units of enzyme per 50 mL of the mixture. The mixtures were allowed to stand for 5 hours in closed glass containers at 20° C., followed by the addition to each mixture of 1.00 mL of freshly prepared urea solution (2.00 moles/L), to give an overall reaction concentration of 0.100 moles/L of both urea and phosphate. These mixtures, containing phosphate, sulfonic acid, urease, and urea were deemed A mixtures.
(§2) Simultaneously, two more solutions were identically prepared, namely an enzyme-free control where both 3,3′,4-trihydroxysuchsone-2″-sulfonic acid and enzyme are omitted (mixture B), and an enzyme control where enzyme is present without any 3,3′,4-trihydroxysuchsone-2″-sulfonic acid (mixture C). Solution urea concentrations were measured immediately in each of the mixtures, and again after a 120-minute interval.
(§3) For purposes of these tests, the C mixture containing urease and urea was deemed to provide 0% inhibition, whereas the B mixture containing urea without urease was deemed to provide 100% inhibition.
Example 1 was repeated, but with the addition of a buffer to maintain a pH of 7.0 in all of the A, B, and C mixtures. The A mixtures contained the following amounts of the 3,3′,4-trihydroxysuchsone-2″-sulfonic acid: 100, 250, 500, 750, and 1000 ppb. It is known in the art that urease enzyme activity is greater and more difficult to inhibit at neutral pH, as compared with an acid pH, and that the much lower treatment levels would give less urease inhibition.

jackbean urease enzyme [2] = molecular target: T1, jackbean urease enzyme; assay: biochemical; conditions: pH 5
Procedure: as §1, §2, §3

urease enzyme [3] = conditions: industry standard, added at 0.2% v/v of the urea solution; cited from earlier work
[4] = cited from earlier work
urease enzyme [5] = assay: Nitrogen volatilization of 50:50 urea:water solutions (gas trap and FIA instrument)
Text: Various concentrations of Catechol Violet paired with polymer, were examined utilizing the gas trap and FIA instrument at Alltech (Sparta, Ill.). Treatment replicates are shown across the horizontal axis, and percent Nitrogen concentration (expressed as ammonia that has volatilized) is given in the vertical axis. For FIGS. 1, 2, 4A, and 4B, the treatments proceed in number order along the horizontal axis, moving from left to right, with the left being the lowest treatment number and the right being the highest treatment number. For FIGS. 3A and 3B, the treatments proceed as described above, with the exception of treatment 7, which is the farthest right along the horizontal axis. Briefly, the lower the amount of volatilized nitrogen, the greater the inhibition of the activity of the urease enzyme.
Each set of treatments includes:
• 1) An untreated control (50:50 urea:water, w/w). […] Concentrations and details of each treatment are given in the following paragraphs. 7.1—Three Day Results of Catechol Violet Solutions (FIG. 1)

[6] = used with UAN; 87 trials and 487 comparisons; cited from earlier work

T1 sequence (P07374 whole entry, looked up): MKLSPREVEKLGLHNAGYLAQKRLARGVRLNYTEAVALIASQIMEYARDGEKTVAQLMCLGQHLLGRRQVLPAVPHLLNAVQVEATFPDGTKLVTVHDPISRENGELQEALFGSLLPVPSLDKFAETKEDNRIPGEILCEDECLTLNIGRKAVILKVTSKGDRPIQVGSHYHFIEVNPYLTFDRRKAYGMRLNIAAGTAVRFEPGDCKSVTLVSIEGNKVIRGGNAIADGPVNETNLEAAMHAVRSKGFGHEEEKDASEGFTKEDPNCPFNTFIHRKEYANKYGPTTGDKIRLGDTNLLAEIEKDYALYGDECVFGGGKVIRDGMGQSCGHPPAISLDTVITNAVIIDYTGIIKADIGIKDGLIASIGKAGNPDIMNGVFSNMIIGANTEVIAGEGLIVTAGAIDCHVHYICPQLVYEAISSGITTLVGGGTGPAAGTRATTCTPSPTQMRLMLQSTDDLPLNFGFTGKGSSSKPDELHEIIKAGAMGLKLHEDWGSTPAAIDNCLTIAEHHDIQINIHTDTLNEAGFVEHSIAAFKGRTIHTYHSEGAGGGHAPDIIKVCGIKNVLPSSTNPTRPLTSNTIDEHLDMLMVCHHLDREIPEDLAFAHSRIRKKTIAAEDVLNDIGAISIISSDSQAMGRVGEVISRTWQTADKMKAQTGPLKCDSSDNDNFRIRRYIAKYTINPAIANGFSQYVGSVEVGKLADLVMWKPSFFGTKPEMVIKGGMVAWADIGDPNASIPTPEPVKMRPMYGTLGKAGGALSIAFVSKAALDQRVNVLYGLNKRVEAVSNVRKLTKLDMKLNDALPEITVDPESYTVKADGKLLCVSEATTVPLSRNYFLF
Sequence of urease (P07374 whole entry, looked up): as above

SMILES: Oc1ccccc1O [catechol]
- concentration at which effective urease inhibitors (urease): about 1 ppm by weight

SMILES: O=C1C=C/C(=C(/c2ccc(O)c(O)c2)c2ccccc2S(=O)(=O)O)C=C1O [3,3′,4-trihydroxysuchsone-2″-sulfonic acid]
- inhibition at 0.1 ppm (jackbean urease enzyme [1]): 2%
- inhibition at 0.25 ppm (jackbean urease enzyme [1]): 30%
- inhibition at 0.5 ppm (jackbean urease enzyme [1]): 41%
- inhibition at 0.75 ppm (jackbean urease enzyme [1]): 46%
- inhibition at 1 ppm (jackbean urease enzyme [1]): 50%
- inhibition at 0.1 ppm (jackbean urease enzyme [2]): 7%
- inhibition at 0.25 ppm (jackbean urease enzyme [2]): 22%
- inhibition at 0.5 ppm (jackbean urease enzyme [2]): 25%
- inhibition at 0.75 ppm (jackbean urease enzyme [2]): 45%
- inhibition at 1 ppm (jackbean urease enzyme [2]): 61%
- inhibition at 2 ppm (jackbean urease enzyme [2]): 76%
- inhibition at 5 ppm (jackbean urease enzyme [2]): 88%

SMILES: CCCCNP(N)(N)=S [NBPT, N-(n-butyl) thiophosphoric triamide]
- inhibition of N-volatilization (historical) (urease enzyme [3]): near-total inhibition of N-volatilization
- NBPT content lost on storage ([4]; after six months): over 99%
- NBPT content lost on storage ([4]; storage at 25° C. for three months): up to 40%
- urease activity and N-loss through volatilization (FIGS. 3A and 3B) (urease enzyme [5]; NBPT (Agrotain Ultra) 0.2% v/v, three and seven day test): inhibits urease activity and N-loss through volatilization
- 7-day N-loss via volatilization (FIG. 4B) (urease enzyme [5]; after 7 days, compared to untreated urea solution): continue to limit N-loss via volatilization when compared to the untreated urea solution
- average improvement in yield [6]: about 1.6 bushels/acre
- trials resulting in yield losses [6]: about 40%

SMILES: O=C1C=CC(=O)C=C1 [benzoquinone]
- concentration at which effective urease inhibitors (urease): about 1 ppm by weight
